Where two headings read alike, the source gives them in different places.
Legend:
[1] = tested on: common carp hepatic S9 fraction; experiment: Metabolite formation in common carp hepatic S9 fraction (not induced and BNF induced); assay type: in vitro ADME, common carp (Cyprinus carpio); conditions: for Metabolites Concentration, BNF Fish S9: carp induced with 50 mg/kg BNF; for Metabolites Concentration, BNF Fish S9 / Metabolites Concentration, Fish S9: 2 µM parent pharmaceutical, 1 h, 21 °C; for Metabolites Concentration, Fish S9: not induced carp, 1 mg protein
Description: Fish. Fish were collected from a fishpond with a low concentration level of pharmaceuticals (305-880 ng/POCIS). Thus, fish were stocked in the pond for 1 year with a natural photoperiod. The fish were allowed to eat and swim freely in the pond without interaction with humans and avoiding stress conditions. In total, 1-year-old common […] = 12) weighing 695 ± 116 g (mean ± standard deviation) and length 330 ± 19 mm were collected during spring 2018. Additionally, β-naphtaflavone (BNF) was administrated into four fish at levels of 50 mg/kg of BNF in corn oil. Following administration, individuals were kept in a separate aquaria for 48 h, in order to achieve CYP1A1 induction. The fish were then sacrificed according to the ethical rules of the EU harmonized Animal Welfare Act of the Czech Republic. The unit is licensed (No. 53100/2013-MZE-17214), according to the Czech National Directive (the Law against Animal Cruelty, No. 246/1992). Before sampling, fish were anesthetized in an ice bath, and their spinal cords were immediately cut. Fish was bloodless and hepatic tissues were collected and stored at -80 °C before use for the preparation of S9 fraction. Hepatic tissue (approx. 1.2 g) of twelve individual common […] two individual sheep were homogenized in 10 mM Tris-HCl buffer, pH 7.4, containing 250 mM sucrose separately using an T-25 Ultra Turrax homogenizer Ika (Staufen, Germany) followed by centrifugation at 10,000× g for 15 min at 4 °C to obtain S9 fractions. The protein concentration in S9 fractions was determined by the colorimetric method according to Smith et al. at 595 nm. The S9 fractions were diluted to 10 mg/mL protein content. To account for the gender effect, four piscine S9 fractions were combined in one pool with the same ratio of males/females (1:1). The incubations were performed using three S9 pools from common carp. One pool was prepared from ovine S9 fractions. […] According to Hou et al. […] The concentrations of the parent compound and its main metabolites (metoprolol acid, N-desmethylcitalopram, norsertraline, and O-desmethylvenlafaxine) were determined by LC HRMS (Thermo Fisher Scientific, San Jose, CA, USA). The chromatographic separation was performed on a Hypersil Gold aQ analytical column (50 × 2.1 mm; 5 μm particles, Thermo Fisher Scientific). […] A heated electrospray ionization (HESI) source was used for the ionization of the target compounds with a spray voltage of 3.5 kV and nitrogen as the sheath gas (40 arbitrary units), auxiliary gas (10 arbitrary units), and collision gas. The full scan mode with high resolution (70000 FWHM) in range 100-750 m/z was used with the AGC target 3e6, and the maximum filling time 50 ms. Data acquisition was performed with Xcalibur 4.3 Software, and data processing was performed using TraceFinder 3.3 Software (both Thermo Fisher Scientific, San Jose, CA, USA). Internal standard and matrix matching standard methods were used for the quantification of target analytes.

[2] = set-up: method as in PMID 29729738; conditions: fish from pond receiving WWTP water; cited from earlier work
[3] = Control incubation of pharmaceutical without S9 fraction; conditions: 2 µM parent pharmaceutical, no S9, 1 h
Description: To investigate the formation of metabolites, one concentration of pharmaceutical (2 μM) was incubated with 1 mg of protein in piscine or ovine S9 fraction, 1 mM NADPH, and 0.3 mM UDPGA in a potassium phosphate buffer (50 mM, 7.4 pH) (Table 2). The total volume of each incubation was 0.5 mL. The incubation mixture was vortexed and incubated for 1 h in a water bath (at 21 °C for fish and 37 °C for ovine). Then, the reaction was stopped by the addition of 0.5 mL ice-cold methanol, vortexed, and centrifuged at 10,000× g for 10 min. […] Sheep hepatic S9 fraction was used as a positive control, because sheep S9 fractions are known to metabolise the studied compounds. […] The supernatant was filtrated (0.45 μm regenerated cellulose filter) and the internal standard for chemical analyses was added. […] S9 fractions with TNBP were incubated under the same conditions as other pharmaceuticals.

[4] = tested on: sheep hepatic S9 fraction; experiment: Metabolite formation in sheep hepatic S9 fraction; assay type: in vitro ADME; conditions: 2 µM parent pharmaceutical, 1 mg protein, 1 h, 37 °C
Description: Sheep. Hepatic tissue from one male and one female Suffolk sheep (age, 2 years; weight 70-80 kg) were collected at a slaughterhouse in Vodňany town, Czech Republic, and stored at -80 °C. Sheep is a relatively new animal model, which has started to be used in veterinarian investigations related to drug-drug interactions, as well as for effective therapy and the limitation of drug-resistance development. Sheep phase I biotransformation enzymes, including CYPs-dependent metabolic activities in sheep liver, were already characterized by Szotakova et al., Maté et al. and Stuchlíková et al.. The use of the S9 fraction from sheep hepatic tissue could represent the mammalian metabolic system in relation to selected pharmaceuticals. […] The protein concentration in S9 fractions was determined by the colorimetric method according to Smith et al. at 595 nm. […] The concentrations of the parent compound and its main metabolites (metoprolol acid, N-desmethylcitalopram, norsertraline, and O-desmethylvenlafaxine) were determined by LC HRMS (Thermo Fisher Scientific, San Jose, CA, USA). […] Internal standard and matrix matching standard methods were used for the quantification of target analytes.

[5] = Kinetics of N-desmethylcitalopram formation from citalopram in common carp S9; assay type: in vitro ADME, common carp (Cyprinus carpio); conditions: common carp (Cyprinus carpio), hepatic S9 fraction, Michaelis-Menten fit, citalopram 0.01-100 μM
Description: (§1) Kinetic analysis using multiple substrate concentrations was conducted only with citalopram using the same procedure as above-described. The substrate concentrations were 0.01, 0.03, 0.1, 1, 10, 50, 75, and 100 μM of citalopram.
(§2) The data were analyzed using non-linear regression analysis (GraphPad Prism version 4.0 for Windows, GraphPad Software, San Diego, CA, USA). The data were fitted to the Michaelis-Menten equation and two enzyme models. The goodness of fit was assessed by comparison of the coefficient of determination (r^2). Visual analysis of Eadie-Hofstee plots was used to estimate whether one or more enzymes participate in the reaction.

[6] = tested on: common carp hepatic S9 fraction; experiment: as above; assay type: in vitro ADME, common carp (Cyprinus carpio); conditions: Michaelis-Menten fit, citalopram 0.01-100 μM
Description: as §1, §2

human hepatic microsomes = tested on: human hepatic microsomes; set-up: method as in PMID 10494454; conditions: cited from earlier work
CYP1A1 = experiment: Inhibition of N-desmethylcitalopram formation by ellipticine in common carp S9; assay type: biochemical, common carp (Cyprinus carpio); conditions: citalopram 5 μM
Description: Ellipticine (a specific inhibitor of mammalian and piscine CYP1A1) was used to investigate if CYP1A1 was responsible for metabolite formation. Incubations were performed only with citalopram. Three concentrations of ellipticine were used in the final incubations: 0.125, 1.25, and 12.5 μM. The choice of these concentrations was based on the previous results. The degree of inhibition was assessed by comparison of metabolite formation in the presence and absence of inhibitor. The incubation without inhibitor contained the same amount of methanol as in the incubations with inhibitor (0.5% from total incubation volume).

CYP1A = tested on: CYP1A; set-up: method as in PMID 29704845; conditions: rainbow trout microsomal fraction; cited from earlier work
CYP3A-like = tested on: CYP3A-like; set-up: method as in PMID 29704845; conditions: rainbow trout microsomal fraction; cited from earlier work

## CC(C)NCC(O)COc1ccc(CC(=O)O)cc1 (stereo not shown) [Metoprolol acid, metoprolol acid]
[1]
  Metabolite formation, fold reduction in induced fish vs not induced S9 fraction: 3.4 fold

## CNCCCC1(c2ccc(F)cc2)OCc2cc(C#N)ccc21 (stereo not shown) [N-desmethylcitalopram]
[1]; BNF induced vs not induced carp S9
  Metabolite formation, fold higher in induced fish than in not induced S9 fraction: 5.3 fold
[1]
  Metabolites Concentration, BNF Fish S9: 1557 pmol/min/mg
  Metabolites Concentration, Fish S9: 295 pmol/min/mg
[2]
  Average concentration in hepatic tissue of common carp: 2.6 ± 1.4 ng/g wet weight
[3]
  Metabolites Concentration, Control (without S9): <LOQ
[4]
  Metabolites Concentration, Sheep S9: 2309 pmol/min/mg
[5]
  Km: 29.7 ± 4.6 µM
[6]
  Vmax of N-desmethylcitalopram formation: 1781 ± 90 pmol/min/mg
Human hepatic microsomes; monophasic model
  Vmax for N-desmethylcitalopram, monophasic model: 183 to 281 pmol/min/mg

## N[C@H]1CC[C@@H](c2ccc(Cl)c(Cl)c2)c2ccccc21 [Norsertraline, norsertraline]
[1]
  Metabolite formation, fold higher in induced fish than in not induced S9 fraction: 1.7 fold

## CN(C)CC(c1ccc(O)cc1)C1(O)CCCCC1 (stereo not shown) [O-desmethylvenlafaxine]
[1]
  Metabolites Concentration, BNF Fish S9: <LOQ
  Metabolites Concentration, Fish S9: <LOQ
[3]
  Metabolites Concentration, Control (without S9): <LOQ
[4]
  Metabolites Concentration, Sheep S9: 823 pmol/min/mg

## CN(C)CCCC1(c2ccc(F)cc2)OCc2cc(C#N)ccc21 (stereo not shown) [citalopram, Citalopram]
[2]
  Average concentration in hepatic tissue of common carp: 3.1 ± 2.9 ng/g wet weight
Human hepatic microsomes; biphasic model
  Vmax of citalopram N-demethylation, first enzyme: 25 pmol/min/mg
  Vmax of citalopram N-demethylation, second enzyme: 158 pmol/min/mg
Human hepatic microsomes; biphasic model, read-out: Km of citalopram N-demethylation, first enzyme
  Km: 17.3 µM
Human hepatic microsomes; biphasic model, read-out: Km of citalopram N-demethylation, second enzyme
  Km: 185 µM

## Cc1c2ccncc2c(C)c2c1[nH]c1ccccc12 [ellipticine]
CYP1A1; 0.125 μM ellipticine
  Reduction of N-desmethylcitalopram formation: 30 ± 10%
CYP1A1; 1.25 μM ellipticine
  Inhibition of N-desmethylcitalopram formation: completely inhibited
CYP1A1; 12.5 μM ellipticine
  Inhibition of N-desmethylcitalopram formation: completely inhibited

## COc1ccc(C(CN(C)C)C2(O)CCCCC2)cc1 (stereo not shown) [venlafaxine]
CYP1A
  Effect on EROD activity: did not alter
CYP3A-like
  Effect on BFCOD activity: did not alter
